The results in this text go back to patent US11059789B2, “Isoquinoline-steroid conjugates and uses thereof” (priority 2018, dated 2021).

The test system of series [1] is RAW264.7 immortalized murine macrophages. Briefly: TNFα secretion assay (LPS-induced, ELISA). It is filed as cell-based. Particulars: RAW264.7 cells, 4 hrs. Here is the method:
The TNFα assay quantifies secreted TNFα from RAW264.7 immortalized murine macrophages as an indicator of inflammation. The cells were concurrently treated with LPS (as an inducer of inflammation) and a titration of test molecules or control compounds for 4 hrs. After the incubation period, the media was harvested and assayed via an ELISA assay. ODs of experimental samples are fit to those of a standard curve to extrapolate the TNFα concentration. IC50 values were calculated by fitting a curve to experimental values with the controls as the top and bottom limits of the curve. Selected compounds provided herein were subjected to this assay.
(In general: An ELISA detects its analyte on a solid surface through an enzyme-linked reagent.)

In the next series the test system is NFkB. Briefly: NFkB assay. It is filed as cell-based. Particulars: HCl salt. Here is the method: (§1) Inhibition of various kinases was assayed.
A further series deals with PKA (Homo sapiens, UniProt P17612). Briefly: Kinase assay PKA. It is filed as biochemical. Particulars: HCl salt. On the procedure: as §1
A further series addresses PKCh (Homo sapiens (Human), UniProt P24723). Briefly: Kinase assay PKCh. It is filed as biochemical. Particulars: HCl salt. On the procedure: as §1
The subject of another series is PTM. Briefly: PTM assay. It is filed as cell-based. Particulars: HCl salt. On the procedure:
as §1

For another series, the target named is JAK1 (Homo sapiens (Human), UniProt P23458). Briefly: Kinase assay JAK1. It is filed as biochemical. Particulars: HCl salt. On the procedure:
as §1

Another series deals with ROCK1 (Homo sapiens (Human), UniProt Q13464). Briefly: Kinase assay ROCK1. It is filed as biochemical. To be noted: HCl salt. On the procedure: as §1
A further series deals with TYK2 (Homo sapiens (Human), UniProt P29597). Briefly: Kinase assay TYK2. Particulars: HCl salt. Format: biochemical. On the procedure: as §1
The target of a further series is IKKb (Homo sapiens (Human), UniProt O14920). Briefly: Kinase assay IKKb. It is filed as biochemical. To be noted: HCl salt. On the procedure:
as §1

The next series concerns the target AKT1 (Homo sapiens (Human), UniProt P31749). Briefly: Kinase assay AKT1. Format: biochemical. To be noted: HCl salt. Here is the method:
as §1

A further series concerns the target PKCe (Homo sapiens (Human), UniProt Q02156). Briefly: Kinase assay PKCe. Format: biochemical. To be noted: HCl salt. Here is the method: as §1
A further series concerns the target PKCd (Homo sapiens (Human), UniProt Q05655). Briefly: Kinase assay PKCd. Format: biochemical. Particulars: HCl salt. On the procedure: as §1
The target of another series is JAK3 (Homo sapiens (Human), UniProt P52333). Briefly: Kinase assay JAK3. Format: biochemical. Particulars: HCl salt. On the procedure:
as §1

The next series addresses ROCK2 (Homo sapiens (Human), UniProt O75116). Briefly: Kinase assay ROCK2. It is filed as biochemical. Particulars: HCl salt. On the procedure: as §1
For another series, the system named is HTM. Briefly: HTM assay. Format: cell-based. Particulars: HCl salt. Here is the method:
as §1

The target in a further series is JAK2 (Homo sapiens (Human), UniProt O60674). Briefly: Kinase assay JAK2. It is filed as biochemical. To be noted: HCl salt.
The nature of a further series: in vitro. It is filed as cell-based.

Chain of AKT1 (P31749 whole entry, species assumed): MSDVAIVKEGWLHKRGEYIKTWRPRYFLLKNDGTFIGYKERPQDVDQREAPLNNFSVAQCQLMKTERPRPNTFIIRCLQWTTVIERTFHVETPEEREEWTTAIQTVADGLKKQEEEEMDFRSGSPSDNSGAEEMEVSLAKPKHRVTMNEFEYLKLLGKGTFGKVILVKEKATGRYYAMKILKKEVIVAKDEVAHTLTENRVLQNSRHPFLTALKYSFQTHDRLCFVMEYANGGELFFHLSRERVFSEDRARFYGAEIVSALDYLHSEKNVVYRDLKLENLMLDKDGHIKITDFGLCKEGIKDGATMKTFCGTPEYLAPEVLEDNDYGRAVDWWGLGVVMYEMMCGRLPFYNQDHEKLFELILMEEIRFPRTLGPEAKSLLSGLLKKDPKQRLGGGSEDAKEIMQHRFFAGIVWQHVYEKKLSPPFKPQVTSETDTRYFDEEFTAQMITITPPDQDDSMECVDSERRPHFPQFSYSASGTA
Chain of PKCd (Q05655 whole entry, species assumed): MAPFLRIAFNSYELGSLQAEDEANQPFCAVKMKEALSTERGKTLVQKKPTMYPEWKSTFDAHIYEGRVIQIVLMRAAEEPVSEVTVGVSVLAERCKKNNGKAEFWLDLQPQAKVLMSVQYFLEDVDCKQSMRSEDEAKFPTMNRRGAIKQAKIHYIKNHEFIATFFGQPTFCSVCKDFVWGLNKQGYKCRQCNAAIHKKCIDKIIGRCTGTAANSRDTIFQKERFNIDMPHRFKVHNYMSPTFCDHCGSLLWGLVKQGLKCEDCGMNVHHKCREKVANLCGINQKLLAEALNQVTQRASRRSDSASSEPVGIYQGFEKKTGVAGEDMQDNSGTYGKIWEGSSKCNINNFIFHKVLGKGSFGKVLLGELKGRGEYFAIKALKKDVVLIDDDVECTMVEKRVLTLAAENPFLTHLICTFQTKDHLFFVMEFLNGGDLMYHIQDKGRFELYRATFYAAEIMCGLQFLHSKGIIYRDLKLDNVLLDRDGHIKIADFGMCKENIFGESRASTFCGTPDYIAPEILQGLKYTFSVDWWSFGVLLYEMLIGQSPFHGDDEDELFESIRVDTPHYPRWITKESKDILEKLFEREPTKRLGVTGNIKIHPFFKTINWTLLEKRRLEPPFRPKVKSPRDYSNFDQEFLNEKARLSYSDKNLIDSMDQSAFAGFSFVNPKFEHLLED
Chain of TYK2 (P29597 whole entry, species assumed): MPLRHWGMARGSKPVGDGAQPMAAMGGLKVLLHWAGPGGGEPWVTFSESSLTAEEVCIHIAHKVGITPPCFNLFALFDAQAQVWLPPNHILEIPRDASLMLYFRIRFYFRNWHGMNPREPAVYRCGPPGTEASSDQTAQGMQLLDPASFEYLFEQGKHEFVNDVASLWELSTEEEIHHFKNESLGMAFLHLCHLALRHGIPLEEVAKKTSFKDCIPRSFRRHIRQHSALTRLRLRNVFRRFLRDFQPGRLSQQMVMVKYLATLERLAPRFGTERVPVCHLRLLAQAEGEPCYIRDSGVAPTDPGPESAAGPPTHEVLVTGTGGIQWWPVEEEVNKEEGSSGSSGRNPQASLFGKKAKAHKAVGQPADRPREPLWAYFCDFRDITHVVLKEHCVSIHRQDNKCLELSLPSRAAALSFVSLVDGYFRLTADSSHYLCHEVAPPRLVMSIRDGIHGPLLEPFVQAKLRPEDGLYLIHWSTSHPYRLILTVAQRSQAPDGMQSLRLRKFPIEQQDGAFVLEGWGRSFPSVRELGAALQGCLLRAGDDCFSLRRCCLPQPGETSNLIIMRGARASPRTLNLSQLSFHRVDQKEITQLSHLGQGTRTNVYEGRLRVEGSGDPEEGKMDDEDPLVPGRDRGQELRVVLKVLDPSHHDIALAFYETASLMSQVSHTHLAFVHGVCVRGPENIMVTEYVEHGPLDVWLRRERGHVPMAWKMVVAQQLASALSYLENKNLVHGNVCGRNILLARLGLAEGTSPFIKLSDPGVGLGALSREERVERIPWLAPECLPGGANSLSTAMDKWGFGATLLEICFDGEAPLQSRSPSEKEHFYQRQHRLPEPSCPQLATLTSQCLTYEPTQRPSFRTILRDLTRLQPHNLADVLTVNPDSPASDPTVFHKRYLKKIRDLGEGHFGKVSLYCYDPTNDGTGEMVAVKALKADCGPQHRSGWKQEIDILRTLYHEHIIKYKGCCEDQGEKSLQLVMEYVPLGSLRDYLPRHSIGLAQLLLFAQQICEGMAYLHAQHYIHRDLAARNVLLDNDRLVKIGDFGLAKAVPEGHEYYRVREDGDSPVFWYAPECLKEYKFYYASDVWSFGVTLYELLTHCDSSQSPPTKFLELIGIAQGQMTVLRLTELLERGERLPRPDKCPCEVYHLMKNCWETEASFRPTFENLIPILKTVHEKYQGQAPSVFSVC
Chain of ROCK1 (Q13464 whole entry, species assumed): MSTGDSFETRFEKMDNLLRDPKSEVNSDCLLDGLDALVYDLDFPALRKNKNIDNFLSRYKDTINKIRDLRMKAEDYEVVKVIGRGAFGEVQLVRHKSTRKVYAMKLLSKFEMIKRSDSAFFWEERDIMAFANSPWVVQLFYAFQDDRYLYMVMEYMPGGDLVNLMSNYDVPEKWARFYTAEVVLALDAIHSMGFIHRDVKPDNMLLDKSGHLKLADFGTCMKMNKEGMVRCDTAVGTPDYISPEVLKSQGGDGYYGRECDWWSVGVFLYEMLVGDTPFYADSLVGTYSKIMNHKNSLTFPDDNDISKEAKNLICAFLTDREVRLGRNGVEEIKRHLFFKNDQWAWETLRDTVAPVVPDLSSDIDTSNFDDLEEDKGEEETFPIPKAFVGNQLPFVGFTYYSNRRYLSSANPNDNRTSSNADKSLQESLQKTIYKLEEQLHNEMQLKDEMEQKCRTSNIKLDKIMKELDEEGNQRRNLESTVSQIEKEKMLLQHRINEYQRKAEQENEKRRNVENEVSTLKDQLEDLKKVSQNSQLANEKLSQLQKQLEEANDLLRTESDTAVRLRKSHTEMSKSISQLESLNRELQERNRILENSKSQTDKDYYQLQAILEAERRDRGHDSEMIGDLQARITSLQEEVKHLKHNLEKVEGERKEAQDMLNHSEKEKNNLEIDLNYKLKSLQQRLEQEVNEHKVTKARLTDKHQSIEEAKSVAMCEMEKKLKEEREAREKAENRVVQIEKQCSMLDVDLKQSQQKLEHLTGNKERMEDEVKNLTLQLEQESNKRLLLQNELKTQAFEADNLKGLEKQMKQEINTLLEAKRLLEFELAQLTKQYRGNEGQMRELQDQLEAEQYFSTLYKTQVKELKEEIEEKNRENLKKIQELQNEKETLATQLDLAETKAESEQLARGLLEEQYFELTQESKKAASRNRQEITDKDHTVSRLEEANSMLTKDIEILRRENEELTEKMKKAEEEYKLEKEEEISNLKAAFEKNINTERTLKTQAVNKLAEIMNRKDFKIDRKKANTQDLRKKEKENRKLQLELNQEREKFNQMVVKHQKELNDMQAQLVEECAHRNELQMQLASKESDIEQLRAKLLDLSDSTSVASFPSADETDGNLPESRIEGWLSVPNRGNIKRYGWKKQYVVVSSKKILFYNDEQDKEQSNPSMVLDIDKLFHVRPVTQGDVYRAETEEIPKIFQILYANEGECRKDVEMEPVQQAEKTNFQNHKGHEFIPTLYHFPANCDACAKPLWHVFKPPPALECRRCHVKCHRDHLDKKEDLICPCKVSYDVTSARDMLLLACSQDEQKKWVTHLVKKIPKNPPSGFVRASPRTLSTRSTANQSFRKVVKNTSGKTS
Chain of IKKb (O14920 whole entry, species assumed): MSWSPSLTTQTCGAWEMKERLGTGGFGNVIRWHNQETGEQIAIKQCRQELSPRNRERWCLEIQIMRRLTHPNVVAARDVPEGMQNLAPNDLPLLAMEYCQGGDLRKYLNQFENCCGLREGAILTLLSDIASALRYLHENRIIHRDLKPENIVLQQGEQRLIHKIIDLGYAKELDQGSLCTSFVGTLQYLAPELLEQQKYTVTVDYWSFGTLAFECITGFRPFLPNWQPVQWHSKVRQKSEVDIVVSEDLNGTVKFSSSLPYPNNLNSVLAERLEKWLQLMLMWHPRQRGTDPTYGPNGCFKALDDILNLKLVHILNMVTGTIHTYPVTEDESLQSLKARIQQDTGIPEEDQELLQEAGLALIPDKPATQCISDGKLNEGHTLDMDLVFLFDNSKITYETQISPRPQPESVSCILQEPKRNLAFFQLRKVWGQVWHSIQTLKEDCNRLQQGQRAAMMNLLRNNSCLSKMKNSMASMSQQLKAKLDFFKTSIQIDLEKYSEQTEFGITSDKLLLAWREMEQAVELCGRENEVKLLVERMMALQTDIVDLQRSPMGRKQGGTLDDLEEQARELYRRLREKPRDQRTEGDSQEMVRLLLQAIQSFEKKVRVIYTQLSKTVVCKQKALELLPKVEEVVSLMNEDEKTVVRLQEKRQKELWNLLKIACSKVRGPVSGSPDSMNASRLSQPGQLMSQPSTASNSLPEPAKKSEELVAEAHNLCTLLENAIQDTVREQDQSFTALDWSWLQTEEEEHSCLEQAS

Consider `C[C@@H]1C[C@H]2[C@@H]3CCC4=CC(=O)C=C[C@]4(C)[C@@]3(F)[C@@H](O)C[C@]2(C)[C@@]1(O)C(=O)COC(=O)CCC(=O)OCc1ccc(C(CNC(=O)OC(C)(C)C)C(=O)Nc2ccc3cnccc3c2)cc1` (stereo partly drawn) [Example 4, 4-(3-((tert-butoxycarbonyl)amino)-1-(isoquinolin-6-ylamino)-1-oxopropan-2-yl)benzyl (2-((8S,9R,10S,11S,13S,14S,16R,17R)-9-fluoro-11,17-dihydroxy-10,13,16-trimethyl-3-oxo-6,7,8,9,10,11,12,13,14,15,16,17-dodecahydro-3H-cyclopenta[a]phenanthren-17-yl)-2-oxoethyl) succinate], for which 230 nM corresponded to half-maximal inhibition in series [1] (Mus musculus) (IC50).

Regarding `C[C@@H]1C[C@H]2[C@@H]3CCC4=CC(=O)C=C[C@]4(C)[C@@]3(F)[C@@H](O)C[C@]2(C)[C@@]1(O)C(=O)COC(=O)CCC(=O)OCc1ccc(C(CCNC(=O)OC(C)(C)C)C(=O)Nc2ccc3cnccc3c2)cc1` (stereo partly shown) [Example 11], inhibition in [1] (Mus musculus) was half-maximal at 429 nM (IC50).

On to `C[C@@H]1C[C@H]2[C@@H]3CCC4=CC(=O)C=C[C@]4(C)[C@@]3(F)[C@@H](O)C[C@]2(C)[C@@]1(O)C(=O)COC(=O)CCC(=O)OCc1ccc(C(CCN)C(=O)Nc2ccc3cnccc3c2)cc1` (stereo partly shown) [Example 12], for which the midpoint of inhibition in series [1] (Mus musculus), the IC50, lay at 90.5 nM.

For the molecule `CC(C)(C)OC(=O)NC[C@@H](C(=O)Nc1ccc2cnccc2c1)c1ccc(COC(=O)CCC(=O)OCC(=O)[C@@]2(O)CC[C@H]3[C@@H]4CCC5=CC(=O)C=C[C@]5(C)[C@H]4[C@@H](O)C[C@@]32C)cc1` [Example 14], the IC50 in [1] (Mus musculus) is 620 nM.

Turning to `C[C@]12C=CC(=O)C=C1CC[C@@H]1[C@@H]2[C@@H](O)C[C@@]2(C)[C@H]1CC[C@]2(O)C(=O)COC(=O)C1CC1C(=O)OCc1ccc([C@@H](CN)C(=O)Nc2ccc3cnccc3c2)cc1` (stereo partly shown) [Example 19], the IC50 in the series with NFkB was found to be 10000 nM; at PKA, 332 nM; at PKCh, 436 nM; with PTM, 706 nM; on JAK1, 9570 nM; at ROCK1 it was 58 nM. The IC50 on TYK2 is 50000 nM; on IKKb, 50000 nM; on AKT1 it was 2540 nM; on PKCe, 4160 nM; on PKCd it was 589 nM; at JAK3, 2570 nM. For the same molecule, the half-maximal inhibitory concentration (IC50) at ROCK2 was 27 nM.

As for `C[C@@H]1C[C@H]2[C@@H]3CCC4=CC(=O)C=C[C@]4(C)[C@@]3(F)[C@@H](O)C[C@]2(C)[C@@]1(O)C(=O)COC(=O)CCC(=O)OCc1ccc(C(C(=O)Nc2ccc3cnccc3c2)N(C)C)cc1` (stereo partly shown) [Example 20], it took 144 nM to reach half-maximal inhibition in [1] (Mus musculus) (IC50).

On to `CN(C)C(C(=O)Nc1ccc2cnccc2c1)c1ccc(COC(=O)CCC(=O)OCC(=O)[C@@]2(O)CC[C@H]3[C@@H]4CCC5=CC(=O)C=C[C@]5(C)[C@H]4[C@@H](O)C[C@@]32C)cc1` (stereo partly shown) [Example 21], for which it took 1650 nM to reach half-maximal inhibition in series [1] (Mus musculus) (IC50).

Regarding `CN(C)C(C(=O)Nc1ccc2cnccc2c1)c1ccc(COC(=O)CCC(=O)OCC(=O)[C@@]23OC(C)(C)O[C@@H]2C[C@H]2[C@@H]4C[C@H](F)C5=CC(=O)C=C[C@]5(C)[C@@]4(F)[C@@H](O)C[C@@]23C)cc1` (stereo partly shown) [Example 23], the IC50 in series [1] (Mus musculus) amounted to 4.5 nM.

Regarding `C[C@@H]1C[C@H]2[C@@H]3CCC4=CC(=O)C=C[C@]4(C)[C@@]3(F)[C@@H](O)C[C@]2(C)[C@@]1(O)C(=O)COC(=O)CCC(=O)OCc1ccc([C@@H](CN)C(=O)Nc2ccc3cnccc3c2)cc1` [Example 25], the IC50 in the series on NFkB was 39 nM; at PKA it was 138 nM; on PKCh, 173 nM; in the series with PTM it was 295 nM; on JAK1, 50000 nM; on ROCK1 it was 25 nM. In addition, the IC50 was 50000 nM at TYK2; 4.5 nM in the series with HTM; 38500 nM on IKKb; 955 nM at AKT1; 40900 nM at JAK2; 100000 nM in “in vitro”. Also, the IC50 at PKCe turned out to be 1580 nM; at PKCd it was 225 nM; at JAK3, 21400 nM; on ROCK2, 17 nM.

In [1] (Mus musculus), `C[C@@H]1C[C@H]2[C@@H]3CCC4=CC(=O)C=C[C@]4(C)[C@@]3(F)[C@@H](O)C[C@]2(C)[C@@]1(O)C(=O)COC(=O)CCC(=O)OCCc1ccc(C(CN)C(=O)Nc2ccc3cnccc3c2)cc1` (stereo partly shown) [Example 26] had a 50% inhibitory concentration (IC50) of 227 nM.

In the case of `C[C@@H]1C[C@H]2[C@@H]3CCC4=CC(=O)C=C[C@]4(C)[C@@]3(F)[C@@H](O)C[C@]2(C)[C@@]1(O)C(=O)COC(=O)C1CC1C(=O)OCc1ccc([C@@H](CN)C(=O)Nc2ccc3cnccc3c2)cc1` (stereo partly shown) [Example 27], the concentration for half-maximal inhibition (IC50) with NFkB came out at 1790 nM; on PKA, 317 nM; at PKCh it was 331 nM; in the series on PTM, 145 nM; on JAK1, 50000 nM; at ROCK1 it was 29 nM. Further, the IC50 at TYK2 stood at 50000 nM; in the series with HTM, 6 nM; on IKKb, 46800 nM; on AKT1, 2640 nM; on JAK2, 41700 nM; in the series “in vitro”, 100000 nM. The IC50 on PKCe turned out to be 3460 nM; at PKCd, 509 nM; at JAK3, 11600 nM; on ROCK2, 13 nM.

`CN(C)C(C(=O)Nc1ccc2cnccc2c1)c1ccc(COC(=O)CCC(=O)OCC(=O)[C@@]23OC(C)(C)O[C@@H]2C[C@H]2[C@@H]4CCC5=CC(=O)C=C[C@]5(C)[C@@]4(F)[C@@H](O)C[C@@]23C)cc1` (stereo partly shown) [Example 28] yielded a 50% inhibitory concentration (IC50) in [1] (Mus musculus) of 15.5 nM.

Take `CC(C)(C)OC(=O)NC[C@@H](C(=O)Nc1ccc2cnccc2c1)c1ccc(COC(=O)CCC(=O)OCC(=O)[C@@]23OC(C)(C)O[C@@H]2C[C@H]2[C@@H]4CCC5=CC(=O)C=C[C@]5(C)[C@@]4(F)[C@@H](O)C[C@@]23C)cc1` [Example 29]: the IC50 in series [1] (Mus musculus) worked out at 71 nM.

The molecule `CC(C)(C)OC(=O)NCC(C(=O)Nc1ccc2cnccc2c1)c1ccc(CCOC(=O)CCC(=O)OCC(=O)[C@@]23OC(C)(C)O[C@@H]2C[C@H]2[C@@H]4C[C@H](F)C5=CC(=O)C=C[C@]5(C)[C@@]4(F)[C@@H](O)C[C@@]23C)cc1` (stereo partly shown) [Example 31] came in with a concentration for half-maximal inhibition (IC50) in series [1] (Mus musculus) of 5460 nM.

Molecule `C[C@@H]1C[C@H]2[C@@H]3CCC4=CC(=O)C=C[C@]4(C)[C@@]3(F)[C@@H](O)C[C@]2(C)[C@@]1(O)C(=O)COC(=O)C1CC1C(=O)OCCc1ccc(C(CN)C(=O)Nc2ccc3cnccc3c2)cc1` (stereo partly shown) [Example 37] returned an IC50 in [1] (Mus musculus) of 3100 nM.

Consider `CC1(C)O[C@@H]2C[C@H]3[C@@H]4C[C@H](F)C5=CC(=O)C=C[C@]5(C)[C@@]4(F)[C@@H](O)C[C@]3(C)[C@]2(C(=O)COC(=O)CCC(=O)OCc2ccc([C@@H](CN)C(=O)Nc3ccc4cnccc4c3)cc2)O1` [Example 40], for which the IC50 was found to be 28 nM in the series with NFkB; 71 nM at PKA; 190 nM at PKCh; 217 nM in the series with PTM; 50000 nM at JAK1; 19 nM at ROCK1. Moreover, the IC50 at TYK2 came out at 50000 nM; with HTM it was 11 nM; at IKKb it was 32900 nM; on AKT1, 523 nM; on PKCe, 244 nM; at PKCd it was 152 nM. Moreover, the IC50 on JAK3 stood at 17700 nM; on ROCK2 it was 13 nM.

As for `C[C@@H]1C[C@H]2[C@@H]3CCC4=CC(=O)C=C[C@]4(C)[C@@]3(F)[C@@H](O)C[C@]2(C)[C@@]1(O)C(=O)COC(=O)c1cccc([C@@H]2C[C@H]2C(=O)Nc2ccc3cnccc3c2)c1` [Example 90, 2-((8S,9R,10S,11S,13S,14S,16R,17R)-9-fluoro-11,17-dihydroxy-10,13,16-trimethyl-3-oxo-6,7,8,9,10,11,12,13,14,15,16,17-dodecahydro-3H-cyclopenta[a]phenanthren-17-yl)-2-oxoethyl 3-((1R,2R)-2-(isoquinolin-6-ylcarbamoyl)cyclopropyl)benzoate], the midpoint of inhibition in series [1] (Mus musculus), the IC50, lay at 300 nM.

Turning to `C[C@@H]1C[C@H]2[C@@H]3CCC4=CC(=O)C=C[C@]4(C)[C@@]3(F)[C@@H](O)C[C@]2(C)[C@@]1(O)C(=O)COC(=O)c1cccc([C@@H]2C[C@H]2C(=O)Nc2ccc3cnccc3c2F)c1` [Example 91], in series [1], half-maximal inhibition (IC50) required 102 nM.

As usually defined, the IC50 is the concentration that inhibits the measured activity by half.
